In PubChem BioAssay AID330 (DTP/NCI, 2004):
Where “and” joins values, the source holds several entries; their conditions need not be identical. Equal values may be shown once. Inconclusive results and toxic doses are left out. Rule for the calls: active = survival T/C of 150% or more; inactive = T/C below 125% in these data.

Test system: P388 leukemia ip, CD2F1 mice, survival T/C
Assay: NCI In Vivo Anticancer Drug Screen. Data for tumor model P388 Leukemia (intraperitoneal) in CD2F1 (CDF1) mice
Conditions: endpoint: median survival time, higher = longer survival
Outline: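 Mice carrying the transplanted tumor received test compound or vehicle. Survival was recorded in each group, and the value is the treated-group measurement divided by that of the vehicle-treated control group.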

[1] = dose: 25.0 mg/kg/injection, schedule: Q01DX005 (ip), vehicle: Klucel (hydroxypropylcellulose) (HPC)
[2] = dose: 50.0 mg/kg/injection, schedule: Q01DX005 (ip), vehicle: Klucel (hydroxypropylcellulose) (HPC)
[3] = dose: 100.0 mg/kg/injection, schedule: Q01DX005 (ip), vehicle: Klucel (hydroxypropylcellulose) (HPC)
[4] = dose: 200.0 mg/kg/injection, schedule: Q01DX005 (ip), vehicle: Klucel (hydroxypropylcellulose) (HPC)
[5] = dose: 60.0 mg/kg/injection, schedule: Q01DX005 (ip), vehicle: saline with Tween-80
[6] = dose: 120.0 mg/kg/injection, schedule: Q01DX005 (ip), vehicle: saline with Tween-80
[7] = dose: 240.0 mg/kg/injection, schedule: Q01DX005 (ip), vehicle: saline with Tween-80
[8] = dose: 100.0 mg/kg/injection, schedule: Q04DX002 (ip), vehicle: saline with Tween-80
[9] = dose: 50.0 mg/kg/injection, schedule: Q01DX005 (ip), vehicle: saline with Tween-80
[10] = dose: 100.0 mg/kg/injection, schedule: Q01DX005 (ip), vehicle: saline with Tween-80

Measured: T/C

COc1ccc2nc3cc(Cl)ccc3c(Nc3cccc(NC(C)=O)c3)c2n1
inactive: dose: 6.25 mg/kg/injection, schedule: Q01DX009 (ip), vehicle: other 108 % of control | dose: 12.5 mg/kg/injection, schedule: Q01DX009 (ip), vehicle: other 102 % of control | dose: 25.0 mg/kg/injection, schedule: Q01DX009 (ip), vehicle: other 102 % of control | dose: 50.0 mg/kg/injection, schedule: Q01DX009 (ip), vehicle: other 98 % of control | dose: 100.0 mg/kg/injection, schedule: Q01DX009 (ip), vehicle: other 99 % of control

C=CC(COC(=O)C(Cl)(Cl)Cl)NC(=O)C(Cl)(Cl)Cl (stereo not drawn)
inactive: dose: 6.25 mg/kg/injection, schedule: Q01DX005 (ip), vehicle: distilled water + Tween-80 100 % of control | dose: 12.5 mg/kg/injection, schedule: Q01DX005 (ip), vehicle: distilled water + Tween-80 90 % of control | dose: 25.0 mg/kg/injection, schedule: Q01DX005 (ip), vehicle: distilled water + Tween-80 100 % of control | dose: 50.0 mg/kg/injection, schedule: Q01DX005 (ip), vehicle: distilled water + Tween-80 100 % of control | dose: 100.0 mg/kg/injection, schedule: Q01DX005 (ip), vehicle: distilled water + Tween-80 95 % of control

C[n+]1ccccc1C(=O)O
inactive: dose: 25.0 mg/kg/injection, schedule: Q01DX009 (ip), vehicle: saline 102 % of control | dose: 50.0 mg/kg/injection, schedule: Q01DX009 (ip), vehicle: saline 98 % of control | dose: 100.0 mg/kg/injection, schedule: Q01DX009 (ip), vehicle: saline 103 % of control | dose: 200.0 mg/kg/injection, schedule: Q01DX009 (ip), vehicle: saline 92 % of control

Cc1ccc(S(=O)(=O)C23N=NC(C)(C)C2C2CCC3C2)cc1 (stereo not drawn)
inactive: dose: 60.0 mg/kg/injection, schedule: Q01DX005 (ip), vehicle: Klucel (hydroxypropylcellulose) (HPC) 102 % of control | dose: 120.0 mg/kg/injection, schedule: Q01DX005 (ip), vehicle: Klucel (hydroxypropylcellulose) (HPC) 104 % of control | dose: 240.0 mg/kg/injection, schedule: Q01DX005 (ip), vehicle: Klucel (hydroxypropylcellulose) (HPC) 102 % of control

CC(=O)OCCCCCCCCCCCCCCCCCC1=C(C)C(=O)OC1=O
inactive: [1] 96 % of control | [2] 97 % of control | [3] 103 % of control | [4] 99 % of control | dose: 400.0 mg/kg/injection, schedule: Q01DX005 (ip), vehicle: Klucel (hydroxypropylcellulose) (HPC) 92 % of control

O=C1c2ccccc2C(=Nc2ccccc2)c2c1c(O)n(-c1ccccc1)c2O
inactive: [2] 97 % of control | [3] 91 % of control | [4] 96 % of control

O=C(Cc1nc2ccc([N+](=O)[O-])cc2nc1CC(=O)c1cccnc1)c1cccnc1
inactive: [5] 97 % of control | [6] 92 % of control | [7] 90 % of control

O=C(c1ccccc1)c1ccc2n[se]nc2c1
inactive: dose: 3.75 mg/kg/injection, schedule: Q01DX005 (ip), vehicle: saline with Tween-80 100 % of control | dose: 7.5 mg/kg/injection, schedule: Q01DX005 (ip), vehicle: saline with Tween-80 87 % of control | dose: 15.0 mg/kg/injection, schedule: Q01DX005 (ip), vehicle: saline with Tween-80 97 % of control

C=C(C)C1CC=C(C)CC1 (stereo not drawn)
inactive: dose: 100.0 mg/kg/injection, schedule: Q01DX009 (ip), vehicle: saline with Tween-80 95 % of control | dose: 100.0 mg/kg/injection, schedule: Q04DX003 (ip), vehicle: saline with Tween-80 100 % of control | dose: 200.0 mg/kg/injection, schedule: Q01DX009 (ip), vehicle: saline with Tween-80 104 % of control | dose: 200.0 mg/kg/injection, schedule: Q04DX003 (ip), vehicle: saline with Tween-80 104 % of control | dose: 400.0 mg/kg/injection, schedule: Q01DX009 (ip), vehicle: saline with Tween-80 114 % of control | dose: 400.0 mg/kg/injection, schedule: Q04DX003 (ip), vehicle: saline with Tween-80 109 % of control

CC1(C)CC(C)(C)c2c1oc(=O)c1c3c(oc(=O)c21)C(C)(C)CC3(C)C
inactive: dose: 3.12 mg/kg/injection, schedule: Q01DX005 (ip), vehicle: Klucel (hydroxypropylcellulose) (HPC) 96 % of control | dose: 6.25 mg/kg/injection, schedule: Q01DX005 (ip), vehicle: Klucel (hydroxypropylcellulose) (HPC) 100 % of control | dose: 12.5 mg/kg/injection, schedule: Q01DX005 (ip), vehicle: Klucel (hydroxypropylcellulose) (HPC) 87 % of control | [1] 87 % of control and 90 % of control | [3] 90 % of control and 91 % of control

O=C(O)C1C(C(=O)O)C2(Cl)C(Cl)=C(Cl)C1(Cl)C2(Cl)Cl.[Cu+2] (stereo not drawn)
inactive: dose: 50.0 mg/kg/injection, schedule: Q01DX001 (ip), vehicle: saline sonified 104 % of control | dose: 100.0 mg/kg/injection, schedule: Q01DX001 (ip), vehicle: saline sonified 118 % of control

CC(C)(C)P(c1ccccc1)C(C)(C)C
inactive: [8] 103 % of control

CSc1nc(SC)c2c(CO)c(Br)n(Cc3ccccc3)c2n1
inactive: [8] 98 % of control | dose: 200.0 mg/kg/injection, schedule: Q04DX002 (ip), vehicle: saline with Tween-80 94 % of control | dose: 400.0 mg/kg/injection, schedule: Q04DX002 (ip), vehicle: saline with Tween-80 88 % of control

CN1NC(C2NN(C)C(=O)N(C)N2)NN(C)C1=O
inactive: dose: 50.0 mg/kg/injection, schedule: Q01DX005 (ip), vehicle: saline 102 % of control | dose: 100.0 mg/kg/injection, schedule: Q01DX005 (ip), vehicle: saline 102 % of control | dose: 200.0 mg/kg/injection, schedule: Q01DX005 (ip), vehicle: saline 107 % of control

C[Si](C)(C)C#CCO
inactive: [9] 101 % of control | [10] 100 % of control | dose: 200.0 mg/kg/injection, schedule: Q01DX005 (ip), vehicle: saline with Tween-80 105 % of control

O=C(N/N=C\c1c(O)ccc2ccccc12)c1ccncc1
inactive: [9] 104 % of control | [10] 105 % of control

c1ccc(-c2ccc(-c3cn4c(n3)SCC4)cc2)cc1
inactive: dose: 200.0 mg/kg/injection, schedule: Q01DX001 (ip), vehicle: Klucel (hydroxypropylcellulose) (HPC) 91 % of control

O=C(NO)Nc1cc(Cl)cc(Cl)c1
inactive: [5] 114 % of control | [6] 114 % of control

CCCCCC(=O)C(C)(c1nc2nnc(NC(=O)Nc3ccc(Cl)cc3)n2[nH]c1=O)c1nc2nnc(NC(=O)Nc3ccc(Cl)cc3)n2[nH]c1=O
inactive: [5] 103 % of control | [6] 98 % of control | [7] 97 % of control

Nc1ccncc1N
inactive: dose: 2.5 mg/kg/injection, schedule: Q01DX009 (ip), vehicle: saline 94 % of control | dose: 3.12 mg/kg/injection, schedule: Q01DX009 (ip), vehicle: saline 101 % of control | dose: 5.0 mg/kg/injection, schedule: Q01DX009 (ip), vehicle: saline 106 % of control | dose: 6.25 mg/kg/injection, schedule: Q01DX009 (ip), vehicle: saline 97 % of control | dose: 10.0 mg/kg/injection, schedule: Q01DX009 (ip), vehicle: saline 100 % of control | dose: 12.5 mg/kg/injection, schedule: Q01DX009 (ip), vehicle: saline 103 % of control | dose: 20.0 mg/kg/injection, schedule: Q01DX009 (ip), vehicle: saline 93 % of control

C/C=C1\C[N+]2(C)C3CC1C(C[O-])(C(=O)OC)C2Cc1c3[nH]c2ccccc12 (stereo not drawn)
inactive: dose: 0.75 mg/kg/injection, schedule: Q01DX005 (ip), vehicle: Klucel (hydroxypropylcellulose) (HPC) 97 % of control | dose: 1.5 mg/kg/injection, schedule: Q01DX005 (ip), vehicle: Klucel (hydroxypropylcellulose) (HPC) 91 % of control | dose: 3.0 mg/kg/injection, schedule: Q01DX005 (ip), vehicle: Klucel (hydroxypropylcellulose) (HPC) 96 % of control | dose: 6.0 mg/kg/injection, schedule: Q01DX005 (ip), vehicle: Klucel (hydroxypropylcellulose) (HPC) 92 % of control
